These are literature values, as cited in patent US9061061B2, “Method of treating dysglycemia and glucose excursions” (ORX PHARMACEUTICAL CORPORATION, priority 2008, dated 2015).

SMILES strings stand for the structures.

For this series the following is noted: single 850 mg tablet.

On to `CN(C)C(=N)N=C(N)N` [metformin], for which the “lower peak plasma concentration (Cmax) with food compared to fasting” value is around 40% and the “prolongation of time to peak plasma concentration (Tmax) with food” value is 35 min.
